Reference: PMC3752901 (Clinical cancer research : an official journal of the …, 2013)
Blank lines part the entries; values can stand above or below the compound they belong to.

How the values were obtained:
[1] = target: T1, mouse Abcc4 (Mus musculus, UniProt E9Q236); settings: 4 h
T1 sequence (E9Q236 1-1325): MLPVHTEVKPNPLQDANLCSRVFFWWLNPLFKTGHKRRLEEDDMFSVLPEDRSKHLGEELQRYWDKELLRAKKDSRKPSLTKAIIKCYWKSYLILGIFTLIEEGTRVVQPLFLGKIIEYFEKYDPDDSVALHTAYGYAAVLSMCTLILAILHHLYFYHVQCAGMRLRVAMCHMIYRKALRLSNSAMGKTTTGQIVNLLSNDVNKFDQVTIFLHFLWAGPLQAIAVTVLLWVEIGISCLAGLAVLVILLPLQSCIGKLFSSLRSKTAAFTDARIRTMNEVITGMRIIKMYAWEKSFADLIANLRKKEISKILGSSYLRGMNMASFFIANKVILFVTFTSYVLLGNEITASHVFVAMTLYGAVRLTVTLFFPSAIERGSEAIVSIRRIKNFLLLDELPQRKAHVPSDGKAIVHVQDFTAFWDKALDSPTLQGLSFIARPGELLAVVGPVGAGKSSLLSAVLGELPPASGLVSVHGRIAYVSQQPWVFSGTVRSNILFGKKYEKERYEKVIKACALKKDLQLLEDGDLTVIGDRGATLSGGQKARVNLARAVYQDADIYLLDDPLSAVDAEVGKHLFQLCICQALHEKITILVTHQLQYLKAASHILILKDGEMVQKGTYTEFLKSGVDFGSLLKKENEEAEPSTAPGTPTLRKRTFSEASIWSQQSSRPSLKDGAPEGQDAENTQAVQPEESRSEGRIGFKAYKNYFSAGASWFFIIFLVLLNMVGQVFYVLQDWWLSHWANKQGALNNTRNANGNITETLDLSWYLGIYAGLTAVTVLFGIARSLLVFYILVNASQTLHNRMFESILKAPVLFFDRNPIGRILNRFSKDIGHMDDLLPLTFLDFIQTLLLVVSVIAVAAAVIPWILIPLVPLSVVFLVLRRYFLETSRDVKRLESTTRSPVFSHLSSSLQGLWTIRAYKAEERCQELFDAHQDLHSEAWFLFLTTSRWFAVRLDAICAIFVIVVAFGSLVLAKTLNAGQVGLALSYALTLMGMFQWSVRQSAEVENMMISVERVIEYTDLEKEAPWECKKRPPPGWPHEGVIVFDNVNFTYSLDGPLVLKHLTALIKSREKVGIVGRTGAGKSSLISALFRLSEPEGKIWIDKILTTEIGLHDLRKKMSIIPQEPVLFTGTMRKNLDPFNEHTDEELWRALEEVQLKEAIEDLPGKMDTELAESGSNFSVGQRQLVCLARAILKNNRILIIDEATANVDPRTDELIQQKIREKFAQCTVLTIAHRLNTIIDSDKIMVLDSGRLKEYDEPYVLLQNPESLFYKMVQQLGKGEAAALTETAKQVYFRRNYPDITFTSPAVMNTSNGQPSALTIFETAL

[2] = system: ABCC4; settings: cited from earlier work; for Km: read-out: Michaelis-Menten constant (Km) for ABCC4
[3] = ref 24 (methotrexate), 14 (cefadroxil); cited from earlier work
[4] = target: T1, mouse Abcc4; test: Accumulation/efflux in Saos-2 cells transfected with Abcc4; settings: 100 μM, 4-h incubation
[5] = Plasma pharmacokinetics in wildtype and Abcc4; settings: oral 50 mg/kg, wildtype vs Abcc4(−/−) mice
[6] = target: T2, human ABCC4 (Homo sapiens, UniProt O15439); test: Uptake into inside-out Sf9 vesicles expressing ABCC4; settings: GSH 2mM
T2 sequence (O15439 1-1325): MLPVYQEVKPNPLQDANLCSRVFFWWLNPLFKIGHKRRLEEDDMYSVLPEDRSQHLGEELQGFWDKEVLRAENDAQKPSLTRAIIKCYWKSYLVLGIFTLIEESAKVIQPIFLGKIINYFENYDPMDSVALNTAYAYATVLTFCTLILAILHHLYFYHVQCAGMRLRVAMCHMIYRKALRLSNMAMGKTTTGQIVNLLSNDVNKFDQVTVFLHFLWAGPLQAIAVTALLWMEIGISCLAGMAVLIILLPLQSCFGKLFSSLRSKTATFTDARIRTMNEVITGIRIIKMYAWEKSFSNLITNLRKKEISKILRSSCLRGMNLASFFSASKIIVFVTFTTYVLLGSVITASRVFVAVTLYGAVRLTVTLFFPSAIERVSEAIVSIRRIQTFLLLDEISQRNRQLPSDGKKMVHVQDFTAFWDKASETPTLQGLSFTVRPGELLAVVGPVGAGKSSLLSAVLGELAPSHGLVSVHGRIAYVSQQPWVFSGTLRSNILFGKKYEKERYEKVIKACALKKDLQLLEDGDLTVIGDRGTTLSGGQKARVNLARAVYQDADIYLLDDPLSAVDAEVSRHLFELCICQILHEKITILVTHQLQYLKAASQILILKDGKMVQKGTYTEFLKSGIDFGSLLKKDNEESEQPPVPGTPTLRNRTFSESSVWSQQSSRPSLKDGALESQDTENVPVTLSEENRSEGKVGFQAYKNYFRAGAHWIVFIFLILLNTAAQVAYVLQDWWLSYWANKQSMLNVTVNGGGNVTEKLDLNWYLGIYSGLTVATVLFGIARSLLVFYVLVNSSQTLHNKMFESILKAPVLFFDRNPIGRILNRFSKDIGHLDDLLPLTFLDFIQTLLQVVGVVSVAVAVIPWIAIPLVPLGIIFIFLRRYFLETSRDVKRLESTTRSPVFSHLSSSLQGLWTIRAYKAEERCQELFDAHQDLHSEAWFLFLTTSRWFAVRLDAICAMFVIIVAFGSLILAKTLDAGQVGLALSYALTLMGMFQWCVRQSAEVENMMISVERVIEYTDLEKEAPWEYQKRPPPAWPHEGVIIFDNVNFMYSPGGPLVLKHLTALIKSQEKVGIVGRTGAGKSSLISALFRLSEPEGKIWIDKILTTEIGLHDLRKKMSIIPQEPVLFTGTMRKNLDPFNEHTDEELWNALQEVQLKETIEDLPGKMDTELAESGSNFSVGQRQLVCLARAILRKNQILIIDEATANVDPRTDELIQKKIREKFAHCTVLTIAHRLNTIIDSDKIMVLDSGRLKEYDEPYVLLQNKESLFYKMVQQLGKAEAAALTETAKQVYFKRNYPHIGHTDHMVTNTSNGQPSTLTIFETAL

substrate of mouse Abcc4 [1]: substrates of mouse Abcc4
SMILES: O=C(O)c1ccccc1O [salicylic acid]

SMILES: Nc1nc2c(c(=O)[nH]1)N(C=O)C(CNc1ccc(C(=O)N[C@@H](CCC(=O)O)C(=O)O)cc1)CN2 (stereo partly drawn) [leucovorin]
Km [2]: 640 µM

SMILES: CC1=C(C(=O)O)N2C(=O)[C@@H](NC(=O)[C@H](N)c3ccc(O)cc3)[C@H]2SC1 [cefadroxil]
pharmacokinetic profile after oral administration in Abcc4(−/−) mice [3]: unchanged

SMILES: C[C@H](Cn1cnc2c(N)ncnc21)OCP(=O)(O)O [tenofovir]
Km [2]: > 1000 µM

transport by mouse Abcc4 (accumulation in Saos-2 cells overexpressing Abcc4 compared to control cells) [4]: no noticeable efflux transport | effect of Abcc4-deficiency on the oral pharmacokinetic profile [5]: not substantially affected
SMILES: Cc1ccc(NC(=O)c2ccc(CN3CCN(C)CC3)cc2)cc1Nc1nccc(-c2cccnc2)n1 [imatinib]

SMILES: CN(Cc1cnc2nc(N)nc(N)c2n1)c1ccc(C(=O)N[C@@H](CCC(=O)O)C(=O)O)cc1 [MTX, methotrexate]
pharmacokinetic profile after oral administration in Abcc4(−/−) mice [3]: unchanged | Km [2]: 220 to 1300 µM

increase of ABCC4-mediated transport by GSH [6]: about 2 fold
SMILES: C[C@]12CC[C@@H]3c4ccc(O)cc4CC[C@H]3[C@@H]1CC[C@@H]2O[C@@H]1O[C@H](C(=O)O)[C@@H](O)[C@H](O)[C@H]1O [E2G, Estradiol-17β-D-glucuronide]

SMILES: Nc1ncnc2c1ncn2CCOCP(=O)(O)O [adefovir]
Km [2]: > 1000 µM

substrate of mouse Abcc4 [1]: substrates of mouse Abcc4
SMILES: CC(=O)Oc1ccccc1C(=O)O [aspirin, acetylsalicylic acid]
transported substrate of human ABCC4 [2]: transported substrate of human ABCC4
